pKi: −log10 of the molar value.
molecular target: T1, human A2a receptor (Homo sapiens, UniProt P29274); test: Competition binding assay using Scintillation Proximity technology (A2a activity); settings: membranes from HEK293 cells expressing the human A2a receptor; 0.5 nM tritiated ligand; Cheng-Prusoff
T1 construct: purchased Perkin-Elmer RBHA2AM400UA; host or cells: HEK293 cells (membranes)
Method: Binding affinities of compounds of the invention for the human A2a receptor were determined in a competition binding assay using Scintillation Proximity technology. Thus, […] from HEK293 cells expressing the human A2a receptor were incubated with a compound of the invention at concentrations ranging from 3000 nM to 0.15 nM in a reaction mixture containing also 0.5 nM of a tritiated form of 5-amino-7-[2-phenethyl]-2-(furan-2-yl)-7H-pyrazolo[4,3-e][1,2,4]triazolo[1,5-c]pyrimidine (the tritiated compound) and 100 μg of wheat germ agglutin-coated yttrium silicate SPA beads for one hour at room temperature with agitation. The beads were then allowed to settle to the bottom of the wells for 1 hr, after which the membrane-associated radioactivity was determined by scintillation counting in a TopCount microplate reader. Ki values were determined using the Cheng-Prusoff equation.
HEK293 cells expressing the human, rat, dog or monkey adenosine 2a receptor (Purchased from Perkin-Elmer # RBHA2AM400UA).
The Tritiated compound was prepared according to published methods.
Wheat germ agglutinin-coated yttrium silicate SPA beads (GE Healthcare # RPNQ0023). Dilute to 25 mg/ml in assay buffer.
Assay Buffer was prepared using Dulbecco's calcium and magnesium free phosphate buffered saline+10 mM MgCl2
Adenosine deaminase from calf intestine, 10 mg/2 ml (Roche #10 102 105 001).
A2a antagonist standard (9-chloro-1-(2-furanyl)-[1,2,4]triazolo1,5-c]quinazolin-5-amine from Tocris Bioscience)
Make eight 1:3 serial dilutions in 100% DMSO from a 3 mM compound stock
Transfer 50 nl of compound into a 384-well OptiPlate (Perkin Elmer).
Typically, final concentrations of compound used in the assay ranged from 3000 nM to 0.152 nM.
Dilute a solution of the Tritiated compound to 1.25 nM in assay buffer. This is a 2.5× solution. The final concentration in the assay is 0.5 nM. Calculate the concentration by counting two 5 μl aliquots.
Use 0.25 ug of membrane/well. Dilute membranes to 9.7 μg/ml in assay buffer. Treat with 20 ug/ml adenosine deaminase (ADA) for 15 minutes at room temperature to degrade endogenous adenosine.
Use 100 μg/well wheat germ agglutinin-coated yttrium silicate SPA beads.
Mix ADA-treated membranes and SPA beads together for 30 min prior to assay.
To the Perkin-Elmer Optiplate-384 containing the compound titration add 20 μl of 2.5× solution of the Tritiated compound and 30 μl of the membrane-bead mixture. Incubate for one hour at room temperature with agitation.
Include total binding (assay buffer+1% DMSO) and non-specific binding (CGS15943, 1 μM) wells.
Allow the beads to settle for one hour.
A curve fitting program (i.e., Prism, Activity Base, Chemcart) is used to determine the EC50. The Ki value is calculated using the Cheng-Prusoff equation. K i=EC50/(1+(radioligand concentration/Kd))

T1 sequence (P29274 whole entry): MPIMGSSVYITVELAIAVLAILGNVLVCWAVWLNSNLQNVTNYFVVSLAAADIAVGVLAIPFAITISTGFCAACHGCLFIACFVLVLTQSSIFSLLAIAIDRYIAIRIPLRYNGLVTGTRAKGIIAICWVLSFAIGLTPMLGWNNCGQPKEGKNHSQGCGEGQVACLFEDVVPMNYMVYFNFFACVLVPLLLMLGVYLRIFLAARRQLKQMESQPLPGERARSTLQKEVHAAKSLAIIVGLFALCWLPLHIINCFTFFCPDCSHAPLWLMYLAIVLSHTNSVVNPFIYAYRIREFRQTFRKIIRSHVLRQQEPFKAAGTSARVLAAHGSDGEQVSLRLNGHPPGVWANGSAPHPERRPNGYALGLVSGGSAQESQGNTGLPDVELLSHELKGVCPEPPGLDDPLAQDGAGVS

| SMILES | pKi |
| --- | --- |
| COc1cccc2c1nc(N)n1nc(Cc3cccc4[nH]ccc34)cc21 [Ex-41, 2-((1H-indol-4-yl)methyl)-7-methoxypyrazolo[1,5-c]quinazolin-5-amine] | 8.30 |
| COc1cccc2c1nc(N)n1nc(Cc3c(F)cccc3F)cc21 [Ex-42, 2-(2,6-difluorobenzyl)-7-methoxypyrazolo[1,5-c]quinazolin-5-amine] | 8.52 |
| COc1cccc2c1nc(N)n1nc(Cc3cccc(Cl)c3Cl)cc21 [Ex-43, 2-(2,3-dichlorobenzyl)-7-methoxypyrazolo[1,5-c]quinazolin-5-amine] | 7.10 |
| COc1cccc2c1nc(N)n1nc(Cc3cccc4cnccc34)cc21 [Ex-44, 2-(isoquinolin-5-ylmethyl)-7-methoxypyrazolo[1,5-c]quinazolin-5-amine] | 7.74 |
| COc1cccc2c1nc(N)n1nc(Cc3ccccc3Cl)cc21 [Ex-45, 2-(2-chlorobenzyl)-7-methoxypyrazolo[1,5-c]quinazolin-5-amine] | 8.00 |
| COc1cccc2c1nc(N)n1nc(Cc3ccccc3OC(F)(F)F)cc21 [Ex-46, 7-methoxy-2-(2-(trifluoromethoxy)benzyl)pyrazolo[1,5-c]quinazolin-5-amine] | 7.47 |
| COc1cccc2c1nc(N)n1nc(Cc3ccccc3N(C)C)cc21 [Ex-47, 2-(2-(dimethylamino)benzyl)-7-methoxypyrazolo[1,5-c]quinazolin-5-amine] | 9.00 |
| COCc1cccc(Cc2cc3c4cccc(OC)c4nc(N)n3n2)c1 [Ex-48, 7-methoxy-2-(3-(methoxymethyl)benzyl)pyrazolo[1,5-c]quinazolin-5-amine] | 7.40 |
| COc1cccc2c1nc(N)n1nc(Cc3cccc(Cl)c3)cc21 [Ex-49, 2-(3-chlorobenzyl)-7-methoxypyrazolo[1,5-c]quinazolin-5-amine] | 7.46 |
| COc1cccc2c1nc(N)n1nc(Cc3ccccc3C#N)cc21 [Ex-50, 2-((5-amino-7-methoxypyrazolo[1,5-c]quinazolin-2-yl)methyl)benzonitrile] | 8.70 |
| COc1cccc2c1nc(N)n1nc(Cc3ccccc3OCc3ccccc3)cc21 [Ex-51, 2-(2-(benzyloxy)benzyl)-7-methoxypyrazolo[1,5-c]quinazolin-5-amine] | 6.89 |
| COc1cccc2c1nc(N)n1nc(Cc3cccc(C#N)c3)cc21 [Ex-52, 3-((5-amino-7-methoxypyrazolo[1,5-c]quinazolin-2-yl)methyl)benzonitrile] | 7.48 |
| COc1cccc2c1nc(N)n1nc(Cc3cccc4ccsc34)cc21 [Ex-53, 2-(benzo[b]thiophen-7-ylmethyl)-7-methoxypyrazolo[1,5-c]quinazolin-5-amine] | 7.32 |
| COc1cccc2c1nc(N)n1nc(Cc3cccc(-n4nc(C)cc4C)c3)cc21 [Ex-54, 2-(3-(3,5-dimethyl-1H-pyrazol-1-yl)benzyl)-7-methoxypyrazolo[1,5-c]quinazolin-5-amine] | 6.86 |
| COc1cccc2c1nc(N)n1nc(Cc3ccccc3OC(F)F)cc21 [Ex-55, 2-(2-(difluoromethoxy)benzyl)-7-methoxypyrazolo[1,5-c]quinazolin-5-amine] | 8.00 |
| COc1cccc2c1nc(N)n1nc(Cc3cccc4c3CNC4=O)cc21 [Ex-56, 4-((5-amino-7-methoxypyrazolo[1,5-c]quinazolin-2-yl)methyl)isoindolin-1-one] | 7.31 |
| COc1cccc2c1nc(N)n1nc(Cc3cccc4nc(C)ccc34)cc21 [Ex-57, 7-methoxy-2-((2-methylquinolin-5-yl)methyl)pyrazolo[1,5-c]quinazolin-5-amine] | 6.78 |
| COc1cccc2c1nc(N)n1nc(Cc3cccc(-n4cccn4)c3)cc21 [Ex-58, 2-(3-(1H-pyrazol-1-yl)benzyl)-7-methoxypyrazolo[1,5-c]quinazolin-5-amine] | 7.16 |
| COc1cccc2c1nc(N)n1nc(Cc3cccc(F)c3C)cc21 [Ex-59, 2-(3-fluoro-2-methylbenzyl)-7-methoxypyrazolo[1,5-c]quinazolin-5-amine] | 7.68 |
